According to the OligoGym collection:
Only the 19 paired bases of each siRNA are shown; overhangs and chemistry are not given here.

Legend:
Experiment in all cases: five studies, different assays
Conditions in all cases: siRNA
DBI = target: DBI
PLK1 = target: PLK1
Renilla luciferase = target: Renilla luciferase
Further: test concentration or dose not given here.

| Substance | target inhibition (DBI) [%] | target inhibition (PLK1) [%] | also measured |
| --- | --- | --- | --- |
| sense AAAGUAGAAGAGCUAAAGA / antisense UCUUUAGCUCUUCUACUUU | 71.8 |  |  |
| sense UGAAAGCUUACAUCAACAA / antisense UUGUUGAUGUAAGCUUUCA | 33.7 |  |  |
| sense AGAAUGAAUACAGUAUUCC / antisense GGAAUACUGUAUUCAUUCU |  | 58 |  |
| sense UUUGAGACUUCUUGCCUAA / antisense UUAGGCAAGAAGUCUCAAA |  | 82.2 |  |
| sense AAGAGCUAAAGAAAAAAUA / antisense UAUUUUUUCUUUAGCUCUU | 68 |  |  |
| sense GAUGUCCAUGGAAAUAUCC / antisense GGAUAUUUCCAUGGACAUC |  | 43.9 |  |
| sense GGGCGGCUUUGCCAAGUGC / antisense GCACUUGGCAAAGCCGCCC |  | 30.6 |  |
| sense AAACGAUUACUGACUUUCC / antisense GGAAAGUCAGUAAUCGUUU | -18.6 |  |  |
| sense AGAUCACCCUCCUUAAAUA / antisense UAUUUAAGGAGGGUGAUCU |  | 72.5 |  |
| sense GAUCAAAUCUGAAGAAGGA / antisense UCCUUCUUCAGAUUUGAUC |  |  | target inhibition (Renilla luciferase): 90.9% |
| sense UGGGAUGCCUGGAAUGAGC / antisense GCUCAUUCCAGGCAUCCCA | 4.9 |  |  |
| sense AGAUUGUGCCUAAGUCUCU / antisense AGAGACUUAGGCACAAUCU |  | 68.5 |  |
| sense AUGAAGAUCUGGAGGUGAA / antisense UUCACCUCCAGAUCUUCAU |  | 55 |  |
| sense AUGACUCAACACGCCUCAU / antisense AUGAGGCGUGUUGAGUCAU |  | 58.4 |  |
| sense AAGAUGCCAUGAAAGCUUA / antisense UAAGCUUUCAUGGCAUCUU | 50.7 |  |  |
| sense CAGUUUCGAGGUGGAUGUG / antisense CACAUCCACCUCGAAACUG |  | 52.6 |  |
| sense UAUUUCCGCAAUUACAUGA / antisense UCAUGUAAUUGCGGAAAUA |  | 57.1 |  |
| sense GCCAAGAAGUUUCCUAAUA / antisense UAUUAGGAAACUUCUUGGC |  |  | target inhibition (Renilla luciferase): 72.2% |
| sense ACUGAGACAAUGCCUUGUU / antisense AACAAGGCAUUGUCUCAGU | 6.01 |  |  |
| sense AGAUGCCAUGAAAGCUUAC / antisense GUAAGCUUUCAUGGCAUCU | -9.13 |  |  |
| sense GAACAAAGGAAACGGAUGA / antisense UCAUCCGUUUCCUUUGUUC |  |  | target inhibition (Renilla luciferase): 84.4% |
| sense AGAUGCACCUGAUGAAAUG / antisense CAUUUCAUCAGGUGCAUCU |  |  | target inhibition (Renilla luciferase): 63.9% |
| sense UUACUGACUUUCCUUGAGU / antisense ACUCAAGGAAAGUCAGUAA | -8.35 |  |  |
| sense AGUUCGUCGUCCAACAUUA / antisense UAAUGUUGGACGACGAACU |  |  | target inhibition (Renilla luciferase): 66.5% |
| sense UCUUACUGCAUGGUUUGAA / antisense UUCAAACCAUGCAGUAAGA |  |  | target inhibition (Renilla luciferase): 52.3% |
